Results as given in patent US4937240A, “Thienotriazolodiazepine compounds and pharmaceutical uses thereof” (Yoshitomi Pharmaceutical Industries, Ltd., priority 1988, dated 1990).

Tests used:
[1] = system: PAF-induced lethal shock; assay: Effect on PAF-induced lethal shock in mice (p.o.); type: in vivo; details: Mus musculus, male ICR mice, 80 μg/kg PAF i.v. 1 hour after oral administration, observed 24 hours
Protocol: (§1) In order to determine PAF-antagonistic activity of the compounds of the present invention, the inhibitory effects of PAF-induced lethal shock in mice were investigated by oral administration and intravenous administration.
Experiment 1: Effect on PAF-induced lethal shock in mice (p.o.)
The experiment was carried out according to the method of Young et al. described in Prostaglandins, vol. 30, p. 545 (1985). Groups of 9 to 15 male ICR mice (Charles River) weighing 25-30 g were used. 80 μg/kg of PAF (Serdary Research Lab.) solution was intravenously administered in a lateral tail vein 1 hour after the oral administration of test compound (0.1 ml/10 g). […] Results were given as ED50 (mg/kg) in Table 1.

[2] = system: PAF-induced lethal shock; assay: Effect on PAF-induced lethal shock in mice (i.v.); type: in vivo; details: Mus musculus, male ICR mice, 80 μg/kg PAF i.v. 1 hour after intravenous administration, observed 24 hours
Protocol: as §1
Experiment 2: Effect on PAF-induced lethal shock in mice (i.v.)
The experiment was carried out according to the method of Young et al. as described in Experiment 1. Groups of 8 to 15 male ICR mice (Charles River) weighing 25-30 g were used. 80 μg/kg of PAF (Serdary Research Lab.) solution was intravenously administered in a lateral a tail vein 1 hour after the intravenous administration of test compound ([…]). […] Results were given as ED50 (mg/kg) in Table 2.

[3] = system: PAF; details: literature; cited from earlier work

SMILES	ED50 [1] [mg/kg]	ED50 [2] [mg/kg]	antagonistic activity on PAF [3]
Cc1nnc2n1-c1sc3c(c1C(c1ccccc1Cl)=NC2C)CC(C(=O)N1CCOCC1)C3 (centres unmarked) [B, 5-(2-chlorophenyl)-3,4-dihydro-7,10-dimethyl-3-morpholinocarbonyl-2H,7H-cyclopenta[4,5]thieno[3,2-f][1,2,4]triazolo[4,3-a][1,4]diazepine]	0.55		
Cc1nnc2n1-c1sc(CCC(=O)N3CCOCC3)cc1C(c1ccccc1Cl)=NC2 [WEB 2086, 3-[4-(2-chlorophenyl)-9-methyl-6H-thieno[3,2-f][1,2,4]triazolo[4,3-a][1,4]diazepin-2-yl]propionic acid morpholide, reference compound]	1.6	0.125	exhibit more potent PAF-antagonistic activity
CCCN(CCC)C(=O)CCc1cc2c(s1)-n1c(C)nnc1C(C)N=C2c1ccccc1Cl (centres unmarked) [E, 3-[4-(2-chlorophenyl)-6,9-dimethyl-6H-thieno[3,2-f][1,2,4]triazolo[4,3-a][1,4]diazepin-2-yl]propionic acid N,N-dipropylamide]	0.14		
Cc1nnc2n1-c1sc3c(c1C(c1ccccc1Cl)=NC2C)CC(CN1CCOCC1)C3 (centres unmarked) [C, 5-(2-chlorophenyl)-3,4-dihydro-7,10-dimethyl-3-morpholinomethyl-2H,7H-cyclopenta[4,5]thieno[3,2-f][1,2,4]triazolo[4,3-a][1,4]diazepine 1/2 hydrate]	0.2		
Cc1nnc2n1-c1sc(CCC(=O)N3CCN(CC(C)C)CC3)cc1C(c1ccccc1Cl)=NC2C (centres unmarked) [D, 3-[4-(2-chlorophenyl)-6,9-dimethyl-6H-thieno[3,2-f][1,2,4]triazolo[4,3-a][1,4]diazepin-2-yl]propionic acid 4-isobutyl-1-piperazide]	0.3		
Cc1nnc2n1-c1sc(CCC(=O)N3CCOCC3)cc1C(c1ccccc1Cl)=NC2C (centres unmarked) [A, 3-[4-(2-chlorophenyl)-6,9-dimethyl-6H-thieno[3,2-f][1,2,4]triazolo[4,3-a][1,4]diazepin-2-yl]propionic acid morpholide]	0.065	0.021	
Cc1nnc2n1-c1sc3c(c1C(c1ccccc1Cl)=NC2)CC(CN1CCOCC1)C3 (centres unmarked) [STY 2108, 5-(2-chlorophenyl)-3,4-dihydro-10-methyl-3-morpholinomethyl-2H,7H-cyclopenta[4,5]thieno[3,2-f][1,2,4]triazolo[4,3-a][1,4]diazepine]			exhibit more potent PAF-antagonistic activity
Cc1nnc2n1-c1sc(CCC(=O)N3CCOCC3)cc1C(c1ccccc1Cl)=NC2 [4-(2-chlorophenyl)-9-methyl-6H-thieno[3,2-f][1,2,4]triazolo[] [4-(2-chlorophenyl)-9-methyl-6H-thieno[3,2-f][1,2,4]triazolo[4,3-a][1,4]diazepine-2-propionic acid morpholide]			exhibit antagonistic activity on PAF
